Results from patent US20260191861A1, “INFLAMMASOME AND VEGF INHIBITION FOR RETINAL VASCULAR DISEASES” (University of Virginia Patent Foundation, priority 2022, published 2026).

Experiments:
caspase-1 = assay: Rhegmatogenous retinal detachment (RRD) model: retinal caspase-1 cleavage by immunoblot; type: in vivo, mouse; conditions: day 3 RRD, equimolar IP doses twice daily (K-9H 60 mg/kg, 3TC 50 mg/kg)
Procedure: All experiments involving animals were approved by the University of Virginia Institutional Animal Care and Use Committee (IACUC) and adhered to the Association for Research in Vision and Ophthalmology (ARVO) Statement for the Use of Animals in Ophthalmic and Vision Research. Animal subjects were male and female mice aged 6 to 10 weeks. Wild type C57BL/6J mice were obtained from the Jackson Laboratory (Bar Harbor, ME, USA). To anesthetize mice for study procedures, ketamine hydrochloride (100 mg/kg; Ft. Dodge Animal Health, Overland Park, KS, USA) and xylazine (10 mg/kg; Phoenix Scientific, St. Joseph, MO, USA) were delivered by intraperitoneal (IP) injection. Pupils were dilated with topical 1% tropicamide and 2.5% phenylephrine (Alcon Laboratories, Ft. Worth, TX, USA).
RRD model was established by subretinal injection (SRI) of 3 μl 1% carboxymethyl cellulose (CMC; Refresh Liquigel, Allergan, Irvine, CA, USA).
NRTIs and K-9 were delivered via intraperitoneal (IP) injection in equimolar amounts. […] Kamuvudine K-9 (3-methyl-3TC, MW=273 g/mol) was administered either at a low dose (K-9L; 90 mg/kg daily) or a high dose (K-9H; 60 mg/kg twice daily, equimolar to NRTI doses). IP injection of phosphate buffered saline (PBS) was used as control.
Retinal tissue was extracted and lysed by sonication in radioimmunoprecipitation assay (RIPA) buffer (MilliporeSigma, Darmstadt, Germany). The Pierce BCA Protein Assay Kit (ThermoFisher Scientific, Waltham, MA, USA) was used to determine protein concentrations of interest. Samples were prepared that contained equal concentrations of total protein (10-100 μg). Protein samples were resolved by SDS-PAGE and transferred onto Immobilon-FL PVDF membranes (Millipore, Billerica, MA, USA). Membranes were blocked in Odyssey Blocking Buffer (PBS) for 1 hour at room temperature, and then incubated overnight with primary antibody at 4° C. Across study experiments, the following antibodies were used: anti-mouse caspase-1 (1:1000; AG-20B-0042; AdipoGen Life Sciences, San Diego, CA, USA), and anti-mouse GAPDH (1:1000; 2118; Cell Signaling, Danvers, MA, USA). […]

[1] = test system: participants with center-involved diabetic macular edema (CI-DME); assay: Randomized clinical trial of oral lamivudine versus placebo in DME: ETDRS best-corrected visual-acuity letter score (VALS); type: in vivo, human
Procedure: A single center randomized clinical trial was conducted at a tertiary center in São Paulo, Brazil in accordance with the provisions of the Declaration of Helsinki and Good Clinical Practice guidelines. The study was approved by the local institutional review board and study participants provided written informed consent. This study was registered in the Brazilian Registry of Clinical Trials (ReBEC) under the number RBR-87b6r5s. Latinofarma (Brazil) provided the lamivudine and placebo at no cost and also provided funding for bevacizumab which was repackaged in single-used vials by Citopharma (Brazil).
Participants were excluded if they had high-risk proliferative diabetic retinopathy, received any intravitreous injection or laser photocoagulation within the previous 6 months, positive serology for human immunodeficiency virus or hepatitis B virus, or an estimated glomerular rate filtration below 40 mL/min/1.73 m^2 determined with the use of the Cockcroft-Gault equation.
Randomization was performed at the sealed envelope website (https://sealedenvelope.com), in permuted blocks and with stratification according to visual acuity in the study eye. One physician who was not involved with patient assessment was responsible for the randomization and vial delivery to the patients. The study participants, assessing physicians, and OCT technicians were unaware of the treatment group assignment at all visits.
Placebo vials were provided by the same pharmaceutical company responsible for lamivudine production using the same vehicle. The vials were concealed and delivered to the study center. […] At the 4-week visit, participants were administered an intravitreous injection of bevacizumab (1.25 mg in an injection volume of 0.05 ml) in eyes with CI-DME if the best-corrected visual-acuity letter score (VALS) was less than 69 and the retinal central subfield thickness was 325 μm or more. Injection of bevacizumab was performed by the same physician following topical anesthesia, installation of a sterile lid speculum, and application of povidone-iodine drops. No antibiotic was administered after the procedure.
Visual acuity assessment was performed by two certified assessing physicians. The same participant could be assessed by a different physician on each visit. The exam was performed using a back-illuminated 4-meter Early Treatment Diabetic Retinopathy Study (ETDRS) chart. Different ETDRS charts were used to refine the refraction and to assess the right and left eye at each visit. If fewer than 20 letters were correctly identified at 4 meters, testing was also performed at 1 meter adding+0.75 sphere. The refraction was performed without pupil dilation, in the same exam room with a standardized background illumination.
The principal analysis compared lamivudine to placebo. Change in mean VALS from baseline was the primary outcome of interest. We sought to detect a difference of 6 letters in the VALS between groups. This effect size was chosen for power analyses because this change corresponds to a difference of more than 1 line on the ETDRS or Snellen eye charts, the minimal increase in visual acuity judged to be clinically meaningful. By estimating the standard deviation to be 6 letters, we calculated that 16 eyes in each group would provide the trial with 80% power (at a 5% two-sided alpha level) to detect this difference.
To analyze the change in VALS from baseline, a mixed-effects model was employed. Random effects were included in the model to account for subject-specific variability. […] The model's estimates, confidence intervals (CI), and P values were reported for each predictor.
The exams took place at the beginning of the treatment and after 4 weeks of using the medication. At the 4-week return, […] were administered an intravitreous injection of Avastin, one of the standard anti-VEGF treatments for DME. Four weeks after the injection (8 weeks from the start of the study) participants underwent another eye examination. […]

Nc1ccn([C@@H]2CS[C@H](CO)O2)c(=O)n1 [Lamivudine]
degree of suppression of caspase-1 activation (caspase-1): 52%+8% | Mixed model: change in visual acuity from baseline, Treatment (Lamivudine vs. Placebo), estimate ([1]; Table 4, weeks 4 and 8): 11.86 | Model-based contrast: change in visual acuity, Lamivudine - Placebo ([1]; change from baseline to week 4): 11.86 | Model-based contrast: change in visual acuity, Lamivudine - Placebo ([1]; change from baseline to week 8): 18.99 | percentage of eyes with improvement in VALS of 15 or more ([1]; week 4, oral lamivudine): 38% | mean change in VALS from baseline ([1]; week 4, oral lamivudine 150 mg twice daily, before intravitreous bevacizumab): 9.8 letters | mean improvement in VALS from baseline ([1]; week 8, oral lamivudine plus intravitreous bevacizumab 1.25 mg at week 4): 16.9 letters | percentage of eyes with improvement in VALS of 15 or more ([1]; week 8, oral lamivudine plus intravitreous bevacizumab at week 4): 56%
